Reference: patent US20050277627A1, “Colchinol derivatives as vascular damaging agents” (priority 2000, published 2005)

How the values were obtained:
[1] = system: Hras5 tumours (NIH 3T3 fibroblasts transfected with Harvey ras, clone 5) in nude mice; experiment: Hras5 necrosis model; format: in vivo; conditions: 25 mg/kg; single dose, culled 24 hours after dosing; male nude mice
Experimental: NIH 3T3 fibroblasts transfected with Harvey ras, clone 5, (Hras5 cells) were kept in continual passage in Dulbecco's modifed Eagles medium (DMEM) containing 10% foetal bovine serum (FBS) and 1% glutamine, at 37° C. in a humidified incubator gassed with 7.5% carbon dioxide and 92.5% […]. Cells were implanted subcutaneously into the left flank of male nude mice (8-10 weeks of age) at an inoculum of 2×10^5 cells/mouse. Tumours were measured using calipers and randomised into groups of 2-4 mice between days 9-14 after implant. Mice were dosed with compounds, either intravenously or intraperitoneally, once on day of randomisation and culled 24 hours after dosing. Compounds were dissolved in 20% hydroxypropyl beta cyclodextrin in physiological saline at pH 7 and dosed in a volume of 0.1 ml per 10 g body weight. Tumours were excised, weighed and placed in buffered formalin. Area of necrosis in individual tumours was assessed from a haematoxylin/eosin stained-slide by a pathologist and scored from 0, meaning no significant change, to 10, meaning 91-100% necrosis. The activity of examples 5 and 7 (described hereinafter) against tumour vasculature was measured by the fluorescent dye method described hereinabove. Example 1 scored 6.6 at 25 mg/kg.

mammalian tubulin = conditions: O. Boye et al Med. Chem. Res., 1991, 1, 142-150; read-out: IC50 in a tubulin polymerisation assay; cited from earlier work
[2] = system: tumour vasculature in CaNT tumour-bearing mice; experiment: Activity against tumour vasculature measured by fluorescent dye (Hoechst 33342); format: in vivo; conditions: 50 mg/kg intraperitoneally, dye injected 24 hours after drug treatment
Experimental: (b) Activity Against Tumour Vasculature Measured by Fluorescent Dye
Tumour functional vascular volume in CaNT tumour-bearing mice was measured using the fluorescent dye Hoechst 33342 according to the method of Smith et al (Brit. Jnl. Cancer 1988, 57, 247-253). Five animals were used in control and treated groups. The fluorescent dye was dissolved in saline at 6.25 mg/ml and injected intravenously at 10 mg/kg 24 hours after intraperitoneal drug treatment. One minute later, animals were killed and tumours excised and frozen; 10 μm sections were cut at 3 different levels and observed under UV illumination using an Olympus microscope equipped with epifluorescence. Blood vessels were identified by their fluorescent outlines and vascular volume was quantified using a point scoring system based on that described by Chalkley, (Jnl. Natl. Cancer Inst., 1943, 4, 47-53). All estimates were based on counting a minimum of 100 fields from sections cut at the 3 different levels.

Row | SMILES | necrosis score (0 = no significant change, 10 = 91-100% necrosis) [1] | IC50 (mammalian tubulin) [µM] | decrease in perfused vascular volume relative to control [2] [%]
1 | COc1cc2c(c(OC)c1OC)-c1ccc(OC(=O)CCCC(=O)N3CCN(C(C)=O)CC3)cc1[C@@H](NC(C)=O)CC2 [Example 1, (5S)-5-Acetylamino-9,10,11-trimethoxy-6,7-dihydro-5H-dibenzo[a,c]cyclohepten-3-yl 5-(4-acetylpiperazin-1-yl)-5-oxopentanoate] | 6.6 | – | –
2 | COc1cc2c(c(OC)c1OC)-c1ccc(N)cc1C(NC(C)=O)CC2 (stereo not drawn) [N-[3-amino-9,10,11-trimethoxy-6,7-dihydro-5H-dibenzo[a,c]cyclohepten-5-yl]acetamide] | – | 58 | 88
